Experimental findings from US20260297094A1, “Tetracyclic Compounds as SMARCA2 and/or SMARCA4 Degraders” (Aurigene Oncology Limited, priority 2023, published 2026) are described below.

What all share (assay type): cell-based
In one assay the test system is MV-4-11 cells. Kind of assay: Anti proliferative activity in MV-4-11 cells by Cell Titer Glo (Promega) assay. As to conditions: Homo sapiens, MV4-11, 72 h, 3 days, CellTiter-Glo. How it is done:
Example-P2: Determination of Anti Proliferative Activity of Compounds in Cell Lines MV-4-11 by Cell Titer Glo® (Promega) Assay
MV-4-11 (CRL-9591™) cells were seeded in 96 well plate flat black clear bottom plates (Corning, Cat. No 3904) using complete DMEM Medium. Next day, selected compounds of the present invention were added to cells from 10 mM stocks made in DMSO (Sigma Cat no. D2650). Each concentration of compound was tested in triplicate with DMSO concentration at a final percentage not exceeding 0.3 in the cells. After the incubation of MV-4-11 cells with compound for 3 days; assay was terminated using 100 μl of CellTiter Glo® reagent (Promega, Cat. no G7572). CellTiter-Glo® Luminescent reagent determines the number of viable cells based on quantitation of ATP present which is an indicator of cell number and metabolic activity. Luminescence readings were taken in Victor-5 instrument. Percent inhibition of proliferation was calculated using formula, % inhibition=100−(luminescence value of test/luminescence value of DMSO control)*100. DMSO control (0%)=Cells in complete media with DMSO; blank=Media alone containing DMSO. EC50 was calculated using graph pad prism software.

Another assay concerns SK-MEL-5 cells. Kind of assay: Anti proliferative activity in SK-MEL-5 cells by Cell Titer Glo (Promega) assay. The settings on record: Homo sapiens, retreatment on Day 4, terminated on day 8, CellTiter-Glo. How it is done:
Example-P1: Determination of Anti Proliferative Activity of Compounds in Cell Lines SK-MEL-5 by Cell Titer Glo® (Promega) Assay
Cells were seeded into 96-well plates and the plate was incubated in 37 degrees incubator overnight. The next day, compounds were diluted 3-fold to cover 9-point concentration range in DMSO. Intermediate plate dilution was prepared in media followed with compound treatment in cells. Retreatment of cells with compound dilutions was performed on Day 4 and assay was terminated on day 8 for SK-MEL-5 cells using CellTiter-Glo and the plate was kept on orbital shaker for 20 minutes at RT. Assay was terminated on day 6 for RERF-LC-A1 without a compound retreatment. Luminescence signal was recorded on VICTOR^3 instrument. Percent inhibition of proliferation was calculated at each concentration and plotted against the compound concentration. EC50 value was calculated using GraphPad® software.

The target in the next assay is T1, SMARCA2 (Homo sapiens, UniProt P51531).
T1 construct: endogenous in cells; host or cells: MV-4-11 (CRL-9591)
Kind of assay: SMARCA2 degradation in MV-4-11 cells by Western blot. The settings on record: MV4-11, 16 h, at 100 nM, vs DMSO, read-out: Percent degradation SMARCA2. How it is done: (§1) Example-P3: Determination of SMARCA2 and SMARCA4 Degradation in MV-4-11 Cells by Western Blot
(§2) MV-4-11 (CRL-9591™) cells were plated in 6 well plates using complete Iscove's Modified Dulbecco's Medium. On the third day, compounds of present invention were added to cells from 10 mM stocks made in DMSO (Sigma Cat no. D2650). Each concentration of compound was tested with DMSO not exceeding final percentage of 0.1 in the cells. Cells were incubated with the compound for 16 hours followed by harvesting with 1×RIPA lysis buffer (Thermo Fischer, catalogue number #89900) containing protease inhibitor cocktail (Sigma catalogue number #P-8340). Equal amount of protein was loaded on SDS PAGE gel for electrophoresis. Western blot was carried out for detection of either SMARCA2 (Cell signalling technologies, catalogue number #11966) or SMARCA4 antibody (Cell signalling technologies, catalogue number #52251). Beta-Tubulin antibody (Cell signalling technologies, catalogue number #86298) was used as loading control. Percentage of SMARCA2 or SMARCA4 degradation was calculated using formula % Degradation=100−(normalized band intensity in treated sample/normalized band intensity in DMSO sample)*100. Here, “ND” refers to Not determined.

The target in the next assay is T2, SMARCA4 (Homo sapiens, UniProt P51532).
T2 construct: endogenous in cells; host or cells: MV-4-11 (CRL-9591)
Kind of assay: SMARCA4 degradation in MV-4-11 cells by Western blot. As to conditions: MV4-11, at 100 nM, 16 hours, vs DMSO, read-out: Percent degradation SMARCA4. How it is done:
as §1, §2
(Immunoblotting shows a protein as a band on a membrane.)

Structures can show the parent of a compound that is named as a salt.

T1 sequence (P51531 whole entry): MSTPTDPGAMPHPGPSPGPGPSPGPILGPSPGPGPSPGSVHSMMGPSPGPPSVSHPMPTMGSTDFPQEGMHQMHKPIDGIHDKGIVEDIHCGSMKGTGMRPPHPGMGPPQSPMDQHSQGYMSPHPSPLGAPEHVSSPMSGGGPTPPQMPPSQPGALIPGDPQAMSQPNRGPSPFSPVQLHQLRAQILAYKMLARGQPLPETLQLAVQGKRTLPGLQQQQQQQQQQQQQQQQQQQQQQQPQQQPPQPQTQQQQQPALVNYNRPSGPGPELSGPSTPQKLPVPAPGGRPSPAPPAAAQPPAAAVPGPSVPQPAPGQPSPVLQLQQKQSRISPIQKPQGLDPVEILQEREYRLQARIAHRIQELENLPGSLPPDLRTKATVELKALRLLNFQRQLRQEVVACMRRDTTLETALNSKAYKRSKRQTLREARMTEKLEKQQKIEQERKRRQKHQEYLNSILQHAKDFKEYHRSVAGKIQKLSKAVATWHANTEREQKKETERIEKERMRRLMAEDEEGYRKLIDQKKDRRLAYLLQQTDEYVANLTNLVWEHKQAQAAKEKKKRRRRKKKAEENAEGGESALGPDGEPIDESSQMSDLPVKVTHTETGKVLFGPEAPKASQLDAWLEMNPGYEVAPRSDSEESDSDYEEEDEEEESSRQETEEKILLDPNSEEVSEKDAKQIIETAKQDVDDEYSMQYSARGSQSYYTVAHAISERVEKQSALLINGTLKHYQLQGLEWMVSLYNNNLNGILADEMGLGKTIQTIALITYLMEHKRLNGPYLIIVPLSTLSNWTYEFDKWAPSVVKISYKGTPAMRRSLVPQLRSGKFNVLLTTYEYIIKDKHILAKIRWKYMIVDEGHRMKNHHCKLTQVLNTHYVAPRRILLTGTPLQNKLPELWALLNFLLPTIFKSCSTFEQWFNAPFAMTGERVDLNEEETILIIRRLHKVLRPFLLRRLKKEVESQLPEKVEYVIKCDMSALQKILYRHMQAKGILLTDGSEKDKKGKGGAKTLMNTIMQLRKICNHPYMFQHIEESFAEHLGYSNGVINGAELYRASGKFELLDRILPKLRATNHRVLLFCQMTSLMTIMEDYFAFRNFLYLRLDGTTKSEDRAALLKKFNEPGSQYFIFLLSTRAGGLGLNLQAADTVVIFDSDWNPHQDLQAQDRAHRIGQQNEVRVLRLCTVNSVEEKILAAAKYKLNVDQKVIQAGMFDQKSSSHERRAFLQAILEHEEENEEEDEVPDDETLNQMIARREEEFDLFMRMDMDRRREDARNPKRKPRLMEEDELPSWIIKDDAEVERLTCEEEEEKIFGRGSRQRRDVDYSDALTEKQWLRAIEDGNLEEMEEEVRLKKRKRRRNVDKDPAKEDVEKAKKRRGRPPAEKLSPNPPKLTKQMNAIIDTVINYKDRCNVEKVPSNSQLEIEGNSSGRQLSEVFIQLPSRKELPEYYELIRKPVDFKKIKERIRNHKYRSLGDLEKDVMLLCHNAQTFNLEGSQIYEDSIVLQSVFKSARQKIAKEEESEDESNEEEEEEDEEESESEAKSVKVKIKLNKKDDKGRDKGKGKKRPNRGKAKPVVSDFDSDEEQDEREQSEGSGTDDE
T2 sequence (P51532 whole entry): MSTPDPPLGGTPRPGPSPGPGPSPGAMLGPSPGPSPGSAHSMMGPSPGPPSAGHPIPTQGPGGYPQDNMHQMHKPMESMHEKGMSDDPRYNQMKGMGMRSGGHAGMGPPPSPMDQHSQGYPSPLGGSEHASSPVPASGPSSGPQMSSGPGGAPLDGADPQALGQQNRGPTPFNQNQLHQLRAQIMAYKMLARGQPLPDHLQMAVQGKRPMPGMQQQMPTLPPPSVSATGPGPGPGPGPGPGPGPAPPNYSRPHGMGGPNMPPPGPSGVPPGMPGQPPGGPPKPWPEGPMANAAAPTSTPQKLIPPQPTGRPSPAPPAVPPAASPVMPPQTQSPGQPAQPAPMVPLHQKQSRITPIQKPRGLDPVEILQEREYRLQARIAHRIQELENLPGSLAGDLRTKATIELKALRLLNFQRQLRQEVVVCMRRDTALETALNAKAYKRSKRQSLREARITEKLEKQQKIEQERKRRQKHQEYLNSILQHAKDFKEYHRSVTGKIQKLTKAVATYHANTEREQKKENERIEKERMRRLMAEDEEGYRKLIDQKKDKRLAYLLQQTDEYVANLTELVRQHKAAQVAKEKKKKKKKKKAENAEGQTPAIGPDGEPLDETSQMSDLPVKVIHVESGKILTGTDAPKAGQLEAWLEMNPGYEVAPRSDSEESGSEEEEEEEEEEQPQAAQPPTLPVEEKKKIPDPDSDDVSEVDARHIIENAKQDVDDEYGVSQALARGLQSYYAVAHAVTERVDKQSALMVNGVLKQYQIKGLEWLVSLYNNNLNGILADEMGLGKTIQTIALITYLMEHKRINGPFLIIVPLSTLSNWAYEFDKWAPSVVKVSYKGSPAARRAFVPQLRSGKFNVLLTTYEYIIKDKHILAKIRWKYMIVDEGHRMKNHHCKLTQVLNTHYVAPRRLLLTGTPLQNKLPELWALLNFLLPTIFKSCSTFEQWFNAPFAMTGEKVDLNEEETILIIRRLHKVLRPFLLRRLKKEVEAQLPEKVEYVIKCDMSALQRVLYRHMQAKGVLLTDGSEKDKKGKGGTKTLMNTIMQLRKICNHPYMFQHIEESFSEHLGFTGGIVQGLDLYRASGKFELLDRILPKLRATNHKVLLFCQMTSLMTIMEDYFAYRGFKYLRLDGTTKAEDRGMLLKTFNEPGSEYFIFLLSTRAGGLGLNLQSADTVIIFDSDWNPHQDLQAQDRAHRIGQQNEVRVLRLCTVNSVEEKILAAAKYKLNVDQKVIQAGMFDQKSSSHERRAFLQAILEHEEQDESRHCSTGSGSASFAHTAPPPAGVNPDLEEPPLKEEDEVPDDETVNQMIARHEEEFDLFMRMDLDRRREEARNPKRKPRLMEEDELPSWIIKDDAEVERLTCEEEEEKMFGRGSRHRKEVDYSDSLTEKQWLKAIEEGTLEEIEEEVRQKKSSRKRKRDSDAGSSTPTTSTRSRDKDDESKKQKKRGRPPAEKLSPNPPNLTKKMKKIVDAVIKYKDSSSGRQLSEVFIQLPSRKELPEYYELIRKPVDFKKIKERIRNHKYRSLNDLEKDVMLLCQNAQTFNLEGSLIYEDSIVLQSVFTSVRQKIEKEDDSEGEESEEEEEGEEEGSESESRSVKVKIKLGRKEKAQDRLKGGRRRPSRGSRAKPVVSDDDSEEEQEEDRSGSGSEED

One may read the EC50 as the concentration needed to bring the measured effect to its halfway point. On to `O=C1CCC(c2ccc(N3CCN(C4CCN(c5ccc6c(c5)n(C5CCCC5)c5nc(=O)c7c(Br)cccc7n65)CC4)CC3)cc2)C(=O)N1` (stereo not shown) [Compound 6, 3-(4-(4-(1-(4-bromo-7-cyclopentyl-5-oxo-5,7-dihydrobenzo[4,5]imidazo[1,2-a]quinazolin-9-yl)piperidin-4-yl)piperazin-1-yl)phenyl)piperidine-2,6-dione], for which the 50% effective concentration (EC50) in the assay with MV-4-11 cells was over 0.1 µM; in the assay on SK-MEL-5 cells, under 0.01 µM. Moreover, the inhibition at 0.1 µM at SMARCA2 was 96%; at SMARCA4, 90%.
The matching figures for `O=C1CCC(N2Cc3cc(C4CCN(C5CCN(C6CCN(c7ccc8c(c7)n(C7CCCC7)c7nc(=O)c9c(Br)cccc9n87)CC6)CC5)CC4)ccc3C2=O)C(=O)N1` (stereo not shown) [Compound 7, 3-(5-(1″-(4-bromo-7-cyclopentyl-5-oxo-5,7-dihydrobenzo[4,5]imidazo[1,2-a]quinazolin-9-yl)-[1,4′:1′,4″-terpiperidin]-4-yl)-1-oxoisoindolin-2-yl)piperidine-2,6-dione]: under 0.01 µM, under 0.01 µM, 99% and 99%.
Take `Nc1cccc2c1c(=O)nc1n(C3CCCC3)c3cc(N4CCC(N5CCC(c6ccc7c(c6)CN(C6CCC(=O)NC6=O)C7=O)CC5)CC4)ccc3n21` (stereo not shown) [Compound 8, 3-(5-(1′-(4-amino-7-cyclopentyl-5-oxo-5,7-dihydrobenzo[4,5]imidazo[1,2-a]quinazolin-9-yl)-[1,4′-bipiperidin]-4-yl)-1-oxoisoindolin-2-yl)piperidine-2,6-dione-HCl salt]: the EC50 in the assay on MV-4-11 cells and with SK-MEL-5 cells was under 0.01 µM in each case. In addition, the values for the inhibition at 0.1 µM at SMARCA2 and at SMARCA4 were 92% and 99%, respectively.
Consider `O=C1CCC(N2Cc3cc(C4CCN(C5CCN(c6ccc7c(c6)n(C6CCCC6)c6nc(=O)c8c(Cl)cccc8n76)CC5)CC4)ccc3C2=O)C(=O)N1` (stereo not shown) [Compound 9, 3-(5-(1′-(4-chloro-7-cyclopentyl-5-oxo-5,7-dihydrobenzo[4,5]imidazo[1,2-a]quinazolin-9-yl)-[1,4′-bipiperidin]-4-yl)-1-oxoisoindolin-2-yl)piperidine-2,6-dione], for which the EC50 with MV-4-11 cells and with SK-MEL-5 cells was under 0.01 µM in each case. For the same compound, the inhibition at 0.1 µM at SMARCA2 is 90%; on SMARCA4, 99%.
Consider `Cn1c2cc(N3CCC(N4CCC(c5ccc6c(c5)CN(C5CCC(=O)NC5=O)C6=O)CC4)CC3)ccc2n2c3cccc(Br)c3c(=O)nc12` (stereo not shown) [Compound 14, 3-(5-(1′-(4-bromo-7-methyl-5-oxo-5,7-dihydrobenzo[4,5]imidazo[1,2-a]quinazolin-9-yl)-[1,4′-bipiperidin]-4-yl)-1-oxoisoindolin-2-yl)piperidine-2,6-dione], for which the EC50 in the assay with MV-4-11 cells and in the assay with SK-MEL-5 cells was under 0.01 µM each time. In addition, the inhibition at 0.1 µM at SMARCA2 was 100%; on SMARCA4, 94%.
As for `Cn1c2cc(N3CCC(N4CCC(c5ccc6c(c5)CN(C5CCC(=O)NC5=O)C6=O)CC4)CC3)ccc2n2c3cccc(N)c3c(=O)nc12` (stereo not shown) [Compound 15, 3-(5-(1′-(4-amino-7-methyl-5-oxo-5,7-dihydrobenzo[4,5]imidazo[1,2-a]quinazolin-9-yl)-[1,4′-bipiperidin]-4-yl)-1-oxoisoindolin-2-yl)piperidine-2,6-dione-HCl salt], the EC50 in the assay on MV-4-11 cells and in the assay on SK-MEL-5 cells was under 0.01 µM each time. The inhibition at 0.1 µM turned out to be 96% at SMARCA2 and 95% at SMARCA4.
Take `Cn1c2cc(N3CCC(N4CCC(c5ccc(NC6CCC(=O)NC6=O)cc5F)CC4)CC3)ccc2n2c3cccc(Br)c3c(=O)nc12` (stereo not shown) [Compound 16, 3-((4-(1′-(4-bromo-7-methyl-5-oxo-5,7-dihydrobenzo[4,5]imidazo[1,2-a]quinazolin-9-yl)-[1,4′-bipiperidin]-4-yl)-3-fluorophenyl)amino)piperidine-2,6-dione]: the concentration giving a half-maximal response (EC50) in the assay with MV-4-11 cells and with SK-MEL-5 cells was under 0.01 µM in each case. Also, the inhibition at 0.1 µM at SMARCA2 is 99%; on SMARCA4, 100%.
